Reference: patent US20230022400A1, “IMMUNOMODULATORS” (Bristol-Myers Squibb Company, priority 2019, published 2023)
Where a SMILES comes first, the peptide text is derived from it. Bridges are numbered along the chain shown (N, C = ends). [ ]: non-standard residue; d: D form. The star is where a group is joined. Trp(1-CH2COOH) = N[C@@H](Cc1cn(CC(=O)O)c2ccccc12)C(=O)O; X22 = Cc1ccc2c(c1)[nH]c1nc(Cl)nc(*)c12; Hyp = O=C(O)[C@@H]1C[C@@H](O)CN1; X10 = c1ccc2c(c1)sc1ncnc(*)c12; X16 = c1ccc2c(c1)sc1c(*)ncnc12; X2 = CSc1nc(*)c2sc3ccccc3c2n1; X5 = c1ccc2c(c1)oc1c(*)ncnc12; NMeNle = CCCC[C@H](NC)C(=O)O; X4 = c1nc(*)c2c3c(sc2n1)CCC3; NMeA = CN[C@@H](C)C(=O)O; Dab = NCC[C@H](N)C(=O)O; Dap = NC[C@H](N)C(=O)O

target: T1, PD-1/PD-L1 interaction (PD-1-Ig / PD-L1-His) (Homo sapiens, UniProt Q9NZQ7); experiment: PD-1/PD-L1 Homogenous Time-Resolved Fluorescence (HTRF) binding assay; settings: PD-L1-His 10 nM final, PD-1-Ig 20 nM final; inhibitors pre-incubated with PD-L1-His for 15 m
T1 construct: TVMV protease site (linker) (C); made in house; host or cells: HEK293T cells
T1 sequence (Q9NZQ7 18-239): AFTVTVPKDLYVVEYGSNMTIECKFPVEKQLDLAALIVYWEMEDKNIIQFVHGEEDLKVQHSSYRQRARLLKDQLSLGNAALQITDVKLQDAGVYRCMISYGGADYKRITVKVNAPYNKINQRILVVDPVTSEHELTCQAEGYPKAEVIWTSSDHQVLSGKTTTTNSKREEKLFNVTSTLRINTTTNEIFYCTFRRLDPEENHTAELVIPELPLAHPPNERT
Text: The ability of the compounds of formula (I) to bind to PD-L1 was investigated using a PD-1/PD-L1 Homogenous Time-Resolved Fluorescence (HTRF) binding assay.
The interaction of PD-1 and PD-L1 can be assessed using soluble, purified preparations of the extracellular domains of the two proteins. The PD-1 and PD-L1 protein extracellular domains were expressed as fusion proteins with detection tags, for PD-1, the tag was the Fc portion of Immunoglobulin (PD-1-Ig) and for PD-L1 it was the 6 histidine motif (PD-L1-His). All binding studies were performed in an HTRF assay buffer consisting of dPBS supplemented with 0.1% […] bovine serum albumin and 0.05% (v/v) Tween-20. For the h/PD-L1-His binding assay, inhibitors were pre-incubated with PD-L1-His (10 nM final) for 15 m in 4 μl of assay buffer, followed by addition of PD-1-Ig (20 nM final) in 1 μl of assay buffer and further incubation for 15 m. HTRF detection was achieved using europium crypate-labeled anti-Ig (1 nM final) and allophycocyanin (APC) labeled anti-His (20 nM final). Antibodies were diluted in HTRF detection buffer and 5 μl was dispensed on top of the binding reaction. The reaction mixture was allowed to equilibrate for 30 minutes and the resulting signal (665 nm/620 nm ratio) was obtained using an EnVision fluorometer. Additional binding assays were established between the human proteins PD-1-Ig/PD-L2-His (20 & 5 nM, respectively) and CD80-His/PD-L1-Ig (100 & 10 nM, respectively).
Recombinant Proteins: Human PD-1 (25-167) with a C-terminal human Fc domain of immunoglobulin G (Ig) epitope tag [hPD-1 (25-167)-3S-IG] and human PD-L1 (18-239) with a C-terminal His epitope tag [hPD-L1(18-239)-TVMV-His] were expressed in HEK293T cells and purified sequentially by ProteinA affinity chromatography and size exclusion chromatography. Human PD-L2-His and CD80-His was obtained through commercial sources.
Table 1 lists the IC50 values for representative examples of this disclosure measured in the PD-1/PD-L1 Homogenous Time-Resolved Fluorescence (HTRF) binding assay.

IC50 | Structure (SMILES)
4.4 nM | CCCC[C@H]1C(=O)N(C)[C@@H](CCCC)C(=O)N[C@@H](CC(C)C)C(=O)N[C@H](C(=O)NCC(N)=O)CSCC(=O)N[C@@H](Cc2ccc(O)cc2)C(=O)N(C)[C@@H](C)C(=O)N[C@@H](CC(N)=O)C(=O)N2CCC[C@H]2C(=O)N[C@@H](CNc2nc(Cl)nc3[nH]c4cc(C)ccc4c23)C(=O)N[C@@H](CC(C)C)C(=O)N2C[C@H](O)C[C@H]2C(=O)N[C@@H](Cc2c[nH]c3ccccc23)C(=O)N[C@@H](CCN)C(=O)N[C@@H](Cc2cn(CC(=O)O)c3ccccc23)C(=O)N1C [Compound 21007] ({CH2CO}-Y[NMeA]NP[Dap](X22)L[Hyp]W[Dab][Trp(1-CH2COOH)][NMeNle][NMeNle]LCG-NH2; thioether N-14)
6.5 nM | CCCC[C@H]1C(=O)N(C)[C@@H](CCCC)C(=O)N[C@@H](CC(C)C)C(=O)N[C@H](C(=O)NCC(N)=O)CSCC(=O)N[C@@H](Cc2ccc(O)cc2)C(=O)N(C)[C@@H](C)C(=O)N[C@@H](CC(N)=O)C(=O)N2CCC[C@H]2C(=O)N[C@@H](CNc2nc(SC)nc3c2sc2ccccc23)C(=O)N[C@@H](CC(C)C)C(=O)N2C[C@H](O)C[C@H]2C(=O)N[C@@H](Cc2c[nH]c3ccccc23)C(=O)N[C@@H](CCN)C(=O)N[C@@H](Cc2cn(CC(=O)O)c3ccccc23)C(=O)N1C [Compound 21008] ({CH2CO}-Y[NMeA]NP[Dap](X2)L[Hyp]W[Dab][Trp(1-CH2COOH)][NMeNle][NMeNle]LCG-NH2; thioether N-14)
136 nM | CCCC[C@H]1C(=O)N(C)[C@@H](CCCC)C(=O)N[C@@H](CC(C)C)C(=O)N[C@H](C(=O)NCC(N)=O)CSCC(=O)N[C@@H](Cc2ccc(O)cc2)C(=O)N(C)[C@@H](C)C(=O)N[C@@H](CC(N)=O)C(=O)N2CCC[C@H]2C(=O)N[C@@H](CNc2nc(SC)nc3c2sc2ccccc23)C(=O)N[C@@H](CC(C)C)C(=O)N2C[C@H](O)C[C@H]2C(=O)N[C@@H](Cc2c[nH]c3ccccc23)C(=O)N[C@@H](CCNc2nc(SC)nc3c2sc2ccccc23)C(=O)N[C@@H](Cc2cn(CC(=O)O)c3ccccc23)C(=O)N1C [Compound 21009] ({CH2CO}-Y[NMeA]NP[Dap](X2)L[Hyp]W[Dab](X2)[Trp(1-CH2COOH)][NMeNle][NMeNle]LCG-NH2; thioether N-14)
3.9 nM | CCCC[C@H]1C(=O)N(C)[C@@H](CCCC)C(=O)N[C@@H](CC(C)C)C(=O)N[C@H](C(=O)NCC(N)=O)CSCC(=O)N[C@@H](Cc2ccc(O)cc2)C(=O)N(C)[C@@H](C)C(=O)N[C@@H](CC(N)=O)C(=O)N2CCC[C@H]2C(=O)N[C@@H](CNc2ncnc3c2oc2ccccc23)C(=O)N[C@@H](CC(C)C)C(=O)N2C[C@H](O)C[C@H]2C(=O)N[C@@H](Cc2c[nH]c3ccccc23)C(=O)N[C@@H](CCNc2ncnc3c2oc2ccccc23)C(=O)N[C@@H](Cc2cn(CC(=O)O)c3ccccc23)C(=O)N1C [Compound 21010] ({CH2CO}-Y[NMeA]NP[Dap](X5)L[Hyp]W[Dab](X5)[Trp(1-CH2COOH)][NMeNle][NMeNle]LCG-NH2; thioether N-14)
2.6 nM | CCCC[C@H]1C(=O)N(C)[C@@H](CCCC)C(=O)N[C@@H](CC(C)C)C(=O)N[C@H](C(=O)NCC(N)=O)CSCC(=O)N[C@@H](Cc2ccc(O)cc2)C(=O)N(C)[C@@H](C)C(=O)N[C@@H](CC(N)=O)C(=O)N2CCC[C@H]2C(=O)N[C@@H](CNc2ncnc3sc4c(c23)CCC4)C(=O)N[C@@H](CC(C)C)C(=O)N2C[C@H](O)C[C@H]2C(=O)N[C@@H](Cc2c[nH]c3ccccc23)C(=O)N[C@@H](CCN)C(=O)N[C@@H](Cc2cn(CC(=O)O)c3ccccc23)C(=O)N1C [Compound 21011] ({CH2CO}-Y[NMeA]NP[Dap](X4)L[Hyp]W[Dab][Trp(1-CH2COOH)][NMeNle][NMeNle]LCG-NH2; thioether N-14)
14 nM | CCCC[C@H]1C(=O)N(C)[C@@H](CCCC)C(=O)N[C@@H](CC(C)C)C(=O)N[C@H](C(=O)NCC(N)=O)CSCC(=O)N[C@@H](Cc2ccc(O)cc2)C(=O)N(C)[C@@H](C)C(=O)N[C@@H](CC(N)=O)C(=O)N2CCC[C@H]2C(=O)N[C@@H](CNc2ncnc3sc4c(c23)CCC4)C(=O)N[C@@H](CC(C)C)C(=O)N2C[C@H](O)C[C@H]2C(=O)N[C@@H](Cc2c[nH]c3ccccc23)C(=O)N[C@@H](CCNc2ncnc3sc4c(c23)CCC4)C(=O)N[C@@H](Cc2cn(CC(=O)O)c3ccccc23)C(=O)N1C [Compound 21012] ({CH2CO}-Y[NMeA]NP[Dap](X4)L[Hyp]W[Dab](X4)[Trp(1-CH2COOH)][NMeNle][NMeNle]LCG-NH2; thioether N-14)
3.4 nM | CCCC[C@H]1C(=O)N(C)[C@@H](CCCC)C(=O)N[C@@H](CC(C)C)C(=O)N[C@H](C(=O)NCC(N)=O)CSCC(=O)N[C@@H](Cc2ccc(O)cc2)C(=O)N(C)[C@@H](C)C(=O)N[C@@H](CC(N)=O)C(=O)N2CCC[C@H]2C(=O)N[C@@H](CNc2ncnc3c2oc2ccccc23)C(=O)N[C@@H](CC(C)C)C(=O)N2C[C@H](O)C[C@H]2C(=O)N[C@@H](Cc2c[nH]c3ccccc23)C(=O)N[C@@H](CCN)C(=O)N[C@@H](Cc2cn(CC(=O)O)c3ccccc23)C(=O)N1C [Compound 21013] ({CH2CO}-Y[NMeA]NP[Dap](X5)L[Hyp]W[Dab][Trp(1-CH2COOH)][NMeNle][NMeNle]LCG-NH2; thioether N-14)
5.7 nM | CCCC[C@H]1C(=O)N(C)[C@@H](CCCC)C(=O)N[C@@H](CC(C)C)C(=O)N[C@H](C(=O)NCC(N)=O)CSCC(=O)N[C@@H](Cc2ccc(O)cc2)C(=O)N(C)[C@@H](C)C(=O)N[C@@H](CC(N)=O)C(=O)N2CCC[C@H]2C(=O)N[C@@H](CNc2ncnc3c2sc2ccccc23)C(=O)N[C@@H](CC(C)C)C(=O)N2C[C@H](O)C[C@H]2C(=O)N[C@@H](Cc2c[nH]c3ccccc23)C(=O)N[C@@H](CCNc2ncnc3c2sc2ccccc23)C(=O)N[C@@H](Cc2cn(CC(=O)O)c3ccccc23)C(=O)N1C [Compound 21014] ({CH2CO}-Y[NMeA]NP[Dap](X16)L[Hyp]W[Dab](X16)[Trp(1-CH2COOH)][NMeNle][NMeNle]LCG-NH2; thioether N-14)
18 nM | CCCC[C@H]1C(=O)N(C)[C@@H](CCCC)C(=O)N[C@@H](CC(C)C)C(=O)N[C@H](C(=O)NCC(N)=O)CSCC(=O)N[C@@H](Cc2ccc(O)cc2)C(=O)N(C)[C@@H](C)C(=O)N[C@@H](CC(N)=O)C(=O)N2CCC[C@H]2C(=O)N[C@@H](CNc2ncnc3sc4ccccc4c23)C(=O)N[C@@H](CC(C)C)C(=O)N2C[C@H](O)C[C@H]2C(=O)N[C@@H](Cc2c[nH]c3ccccc23)C(=O)N[C@@H](CCNc2ncnc3sc4ccccc4c23)C(=O)N[C@@H](Cc2cn(CC(=O)O)c3ccccc23)C(=O)N1C [Compound 21015] ({CH2CO}-Y[NMeA]NP[Dap](X10)L[Hyp]W[Dab](X10)[Trp(1-CH2COOH)][NMeNle][NMeNle]LCG-NH2; thioether N-14)
